These results are taken from patent publication US20100184812A1, “MUTUAL PRODRUGS AND METHODS TO TREAT CANCER” (UNIVERSITY OF MARYLAND, BALTIMORE, priority 2007, published 2010).

As usually defined, the GI50 is the concentration that inhibits growth by half.

Data set [1] relates to PC-3 prostate cancer cells. The experiment in a line: MTT cell growth inhibition assay, PC-3 cells. It counts as cell-based, human. The conditions noted are these: PC-3. Here is the method:
PC-3 (androgen receptor negative, AR−ve) cells were obtained from American Type Culture Collection (ATCC, Rockville, Md., USA). Cells were maintained in RPMI 1640 medium (Gibco, Invitrogen, Carlsbad, Calif., USA) supplemented with 10% fetal bovine serum (Atlanta Biologicals, Lawrenceville, Ga., USA) and 1% penicillin/streptomycin. Cells were grown as a monolayer in T75 tissue culture flasks in a humidified incubator (5% CO2, 95% air) at 37° C.
(§1) PC-3 cells were seeded in 24 well plates (Corning Costar) at a density of 2×10^4 cells per well per 1 mL of medium. Cells were allowed to adhere to the plate for 24 hours and then treated with different concentrations of ATRA, HDIs or mutual prodrugs dissolved in 10% DMSO, 90% ethanol. Cells were treated for five days with renewal of prodrug and media on day 3. On the fifth day, medium was renewed and 100 μL of MTT (3-(4,5-dimethylthiazol-2-yl)-2,5-diphenyl-2H-tetrazolium bromide from Sigma) solution (0.5 mg MTT/mL of media) was added to the medium such that the ratio of MTT:medium was 1:10. The cells were incubated with MTT for 2 hours. The medium was then aspirated and 500 μL of DMSO was added to solubilize the violet MTT-formazan product. The absorbance at 560 nm was measured by spectrophotometry (Victor 1420 multilabel counted, Wallac). For each concentration of agent or mutual prodrugs there were triplicate wells in each independent experiment. GI50 values were calculated by nonlinear regression analysis using GraphPad Prism software.
(§2) The MTT (3-[4,5-dimethylthiazol-2-yl]-2,5-diphenyltetrazolium bromide) assay was used to measure the cell viability. PC-3 cells or MDA-MB-231 cells (1.0×10^3 cells/ml) were seeded into 96 well plates. Cells were treated with the compounds on day 2 at different concentrations. On the 5th day, the medium was removed and […] of a 0.5 mg/ml MTT solution was added to each well. The plates were incubated at 37° C. for 2 hours and 200 μL of DMSO was added. The yellow tetrazolium salt (MTT) is reduced to a purple formazan product by the mitochondrial dehydrogenase from living cells. The product is then detected by spectrophotometry at 560 nm.
To assess the effect of mutual prodrugs on cell growth, PC-3 and MDA-MB-231 cells were treated with mutual prodrugs for […], respectively. […] In this cell line, the order of potency was VNLG/66>VNLG/114>VNLG/122>VNLG/124>VNLG/60. The efficacies of mutual prodrugs were compared to the efficacies of ATRA or HDIs alone in PC-3 prostate cancer cells. […] The reason(s) for these differential potencies of the different mutual prodrugs in PC-3 cells are unknown at this time, but may be idiosyncratic, possibly due to extents and efficiencies of cell membrane penetration and/or intracellular cleavage of mutual prodrugs.

For data set [2] the following is noted: pH 7.2.
Method: Plasma was obtained by centrifugation of blood samples (obtained from mice) containing 0.25% heparin. 0.8 ml of plasma was mixed with 0.2 ml of phosphate buffer (pH 7.2). Incubations were performed at 37° C.+/−0.5° C. using shaking water bath. The reaction was initiated by adding 25 μl of stock solution of mutual prodrugs (1 mg/ml) to preheated plasma and aliquots were taken at different time interval and extracted using solid phase extraction with C18 Bond Elut columns. HPLC analysis of the extracted samples were performed using a multi-linear gradient solvent system, (i) 20 mM aq. CH3COONH4 buffer/CH3OH(50:50), (100% to 0%) and (ii) CH3OH(100%), (0% to 100%) at a flow rate of 0.8 ml/min.
Plasma was obtained by centrifugation of blood samples containing 0.25% heparin. 0.8 ml of plasma was mixed with 0.2 ml of phosphate buffer (pH 7.2). Incubations were performed at 37° C.±0.5° C. using shaking water bath. […]
HPLC methods were developed to briefly study the cleavage of compounds VNLG/60, VNLG/66, VNLG/114,VNLG/122 and VNLG/124, in fresh mouse plasma. […] Furthermore, the stability of mutual prodrugs was studied in 0.02 M phosphate buffer (pH=7.2) and also in 80% human serum (obtained from Sigma) containing 20% 0.02 M phosphate buffer as previously described.^41 The mutual prodrugs were each incubated at 37° C. for 24 h, extracted and analyzed by HPLC.
A further data set has as its system MCF-7HOX-B7. The experiment in a line: MTT cell growth inhibition, MCF-7HOX-B7 cells. It counts as cell-based. The conditions noted are these: MCF-7HOX-B7. Here is the method:
(§3) Other cell lines used in this study include, MDA-MB-231 (estrogen receptor negative, ER−ve), MCF-7 (ER+ve) were also purchased from ATCC and were cultured as previously described.^44, 45 LTLC and LTLT-Ca were kindly provided by Dr. Angela Brodie, University of Maryland, Baltimore, and details of their phenotypes and culturing conditions are as previously reported.^46, 47 MCF-7TAM and MCF-7HoxB-7 were provided by Dr. Sara Sukumar of Johns Hopkins University, Baltimore, and details of their phenotypes and culturing conditions are as previously reported.^48 Except for MCF-7 breast cancer cell all other breast cancer cells used in this study are insensitive to endocrine therapeutic agents and to most anti-cancer agents.
as §1
(§4) Given the potency of most of the mutual prodrugs of the present invention, in MDA-MB-231 and PC-3 cell lines, their effects on the growth of some known drug-resistant breast cancer cell lines, including MCF-7TAMR, MCF-7Hox-B7, LTLC and LTLT-Ca was tested compared to parental MCF-7 cells.

A further data set concerns LTLC. The experiment in a line: MTT cell growth inhibition, LTLC cells. Format: cell-based. Here is the method:
as §3
(§5) PC-3 cells were seeded in 24 well plates (Corning Costar) at a density of 2×10^4 cells per well per 1 mL of medium. Cells were allowed to adhere to the plate for 24 hours and then treated with different concentrations of ATRA, HDIs or mutual prodrugs dissolved in 10% DMSO, 90% ethanol. Cells were treated for five days with renewal of prodrug and media on day 3. […] The absorbance at 560 nm was measured by spectrophotometry (Victor 1420 multilabel counted, Wallac). […] GI50 values were calculated by nonlinear regression analysis using GraphPad Prism software. […]

The subject of the next data set is LTLT-Ca. The experiment in a line: MTT cell growth inhibition, LTLT-Ca cells. It counts as cell-based. The method, then: as §3, §5
A further data set deals with MCF-7TAMR. The experiment in a line: MTT cell growth inhibition, MCF-7TAMR cells. It counts as cell-based. The conditions noted are these: MCF-7TAMR. The method, then: as §3, §1, §4
The subject of the next data set is MCF-7. As to the kind of experiment: MTT cell growth inhibition, MCF-7 cells. Format: cell-based. The conditions noted are these: MCF-7. The method, then: as §3, §1, §4
Data set [3] has as its system MDA-MB-231 breast cancer cells. As to the kind of experiment: MTT colorimetric cell viability assay, MDA-MB-231 cells. It counts as cell-based. The conditions noted are these: MDA-MB-231. The method, then: as §3
as §2, with “viability.” for “viability. PC-3 cells or”, “compound” for “compounds”
as §2

Like-named read-outs stand apart in the source and are kept apart here.

In the case of “{N-[N-{2-[4-{[3-Pyridylmethoxy)carbonyamino]methyl}phenyl)carbonylamino]phenyl}carbamoyl carbamoyloxy}methyl(2E,4E,6E,8E)-3,7-dimethyl-9-(2,6,6-trimethylcyclohex-1-enyl)nona-2,4,6,8-tetraenoate [VNLG/66]”, the “GI50 fold lower than 2 (MS-275)” value in data set [1] is listed as 4.75 fold. Further, the concentration for 50% growth inhibition (GI50) in data set [1] (dose-response curves, at least three independent experiments, SEM < 10%, read-out: GI50 Values, PC-3 prostate cancer cells) worked out at 40 nM; in data set [1] (read-out: GI50, PC-3 cells) it was 40 nM; with MCF-7HOX-B7, 6 nM; with LTLC, 20 nM; in the data set with LTLT-Ca it was 650 nM; in the data set with MCF-7TAMR, 20 nM. Moreover, the GI50 was determined as 150 nM in the data set on MCF-7; 940 nM in data set [3] (dose-response curves, at least three independent experiments, SEM < 10%, read-out: GI50 Values, MDA-MB-231 breast cancer cells); 940 nM in data set [3] (read-out: GI50, MDA-MB-231 cells). The “hydrolysis of mutual prodrug in plasma” value in data set [2] was “no mutual Prodrug after one hour”.
